Experiment [1] has as its target T1, Oxysterols receptor LXR-beta (Homo sapiens, UniProt P55055).
T1 sequence (P55055 whole entry): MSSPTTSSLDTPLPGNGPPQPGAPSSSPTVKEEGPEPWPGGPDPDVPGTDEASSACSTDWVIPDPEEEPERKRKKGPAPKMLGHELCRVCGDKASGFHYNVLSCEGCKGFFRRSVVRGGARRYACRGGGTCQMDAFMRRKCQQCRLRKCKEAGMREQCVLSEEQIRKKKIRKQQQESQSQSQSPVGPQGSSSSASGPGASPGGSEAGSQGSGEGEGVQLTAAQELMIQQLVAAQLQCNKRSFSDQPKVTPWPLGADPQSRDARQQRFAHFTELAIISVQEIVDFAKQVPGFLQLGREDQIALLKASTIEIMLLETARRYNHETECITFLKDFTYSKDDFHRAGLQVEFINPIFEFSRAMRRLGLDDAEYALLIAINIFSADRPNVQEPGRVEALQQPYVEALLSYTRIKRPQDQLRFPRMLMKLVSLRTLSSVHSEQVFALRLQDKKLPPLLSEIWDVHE
It counts as functional, cell-based.

Experiment [2] concerns the target T2, Nuclear receptor subfamily 0 group B member 1 (Homo sapiens, UniProt P51843).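 Note: HEK293T cells transfected with SF-1 and DAX-1 plus StAR promoter luciferase reporter.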
T2 sequence (P51843 whole entry): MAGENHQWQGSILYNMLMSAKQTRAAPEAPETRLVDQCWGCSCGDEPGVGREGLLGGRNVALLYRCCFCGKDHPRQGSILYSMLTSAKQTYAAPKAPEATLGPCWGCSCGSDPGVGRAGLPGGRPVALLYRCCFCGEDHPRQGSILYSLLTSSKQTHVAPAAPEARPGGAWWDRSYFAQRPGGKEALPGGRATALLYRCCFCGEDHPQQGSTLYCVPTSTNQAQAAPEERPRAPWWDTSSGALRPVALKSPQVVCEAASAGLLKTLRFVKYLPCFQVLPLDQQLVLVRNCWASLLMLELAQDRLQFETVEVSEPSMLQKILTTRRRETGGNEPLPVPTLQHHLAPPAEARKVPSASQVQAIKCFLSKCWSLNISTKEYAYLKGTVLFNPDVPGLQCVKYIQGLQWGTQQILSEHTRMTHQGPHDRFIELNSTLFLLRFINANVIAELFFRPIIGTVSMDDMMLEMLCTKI
It counts as functional, cell-based.

In experiment [3] the target is T3, Calpain-2 catalytic subunit (Sus scrofa, UniProt P43367).
T3 sequence (P43367 whole entry): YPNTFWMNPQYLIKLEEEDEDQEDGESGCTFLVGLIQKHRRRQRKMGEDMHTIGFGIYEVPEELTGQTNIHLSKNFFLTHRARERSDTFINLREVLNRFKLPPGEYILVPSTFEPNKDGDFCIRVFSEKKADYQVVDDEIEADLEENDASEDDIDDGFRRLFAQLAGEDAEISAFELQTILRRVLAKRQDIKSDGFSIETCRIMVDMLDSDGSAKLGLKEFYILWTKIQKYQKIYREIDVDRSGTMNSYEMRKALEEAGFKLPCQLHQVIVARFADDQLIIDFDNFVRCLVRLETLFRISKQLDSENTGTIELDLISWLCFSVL
The experiment can be described thus: pig calpain II inhibitor potency, dose response, biochemical, fluorogenic peptide substrate (AID 1420). Type of experiment: functional.

The nature of experiment [4]: cells. Type of experiment: functional, cell-based.
For experiment [5], the target named is Long-chain-fatty-acid--AMP ligase FadD28 (Mycobacterium tuberculosis, UniProt P9WQ59). The experiment can be described thus: Fluorescence polarization aasay to screen for inhibitors that compete for the binding of FadD28 to a bisubstrate Measured in Biochemical System Using Plate Reader - 2147-01_Inhibitor_Dose_CherryPick_Activity. It counts as functional, Mycobacterium tuberculosis H37Rv.
Chain of Long-chain-fatty-acid--AMP ligase FadD28 (P9WQ59 whole entry): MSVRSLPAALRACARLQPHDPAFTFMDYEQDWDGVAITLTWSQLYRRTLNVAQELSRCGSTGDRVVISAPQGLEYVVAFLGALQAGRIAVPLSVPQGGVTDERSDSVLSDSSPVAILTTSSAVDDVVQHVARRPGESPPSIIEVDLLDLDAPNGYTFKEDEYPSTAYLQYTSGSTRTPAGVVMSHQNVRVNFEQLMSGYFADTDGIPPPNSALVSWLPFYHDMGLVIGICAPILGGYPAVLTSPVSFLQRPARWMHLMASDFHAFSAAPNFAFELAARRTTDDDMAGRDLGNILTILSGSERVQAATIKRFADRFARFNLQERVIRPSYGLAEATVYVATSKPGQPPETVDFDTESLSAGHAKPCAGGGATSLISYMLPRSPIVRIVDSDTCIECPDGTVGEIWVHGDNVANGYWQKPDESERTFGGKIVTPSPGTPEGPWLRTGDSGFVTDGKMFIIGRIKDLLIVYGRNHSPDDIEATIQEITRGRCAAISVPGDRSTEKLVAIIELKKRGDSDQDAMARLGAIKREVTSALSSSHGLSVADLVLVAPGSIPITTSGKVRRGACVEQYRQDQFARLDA

Another experiment has as its system Vero. The experiment can be described thus: Vero cell cytotoxicity, cytotoxicity control for flavivirus capping enzyme inhibitors (AID 588742). It counts as functional. Particulars: Chlorocebus sabaeus.
The next experiment has as its target Genome polyprotein (dengue virus type 2, UniProt P29990). The experiment can be described thus: Dengue-2 NS5 methyltransferase inhibitors, primary screen, biochemical, confirmation dose response (AID 588689). Type of experiment: functional.
The target of experiment [6] is T4, Apoptotic protease-activating factor 1 (Homo sapiens, UniProt O14727).
T4 sequence (O14727 whole entry): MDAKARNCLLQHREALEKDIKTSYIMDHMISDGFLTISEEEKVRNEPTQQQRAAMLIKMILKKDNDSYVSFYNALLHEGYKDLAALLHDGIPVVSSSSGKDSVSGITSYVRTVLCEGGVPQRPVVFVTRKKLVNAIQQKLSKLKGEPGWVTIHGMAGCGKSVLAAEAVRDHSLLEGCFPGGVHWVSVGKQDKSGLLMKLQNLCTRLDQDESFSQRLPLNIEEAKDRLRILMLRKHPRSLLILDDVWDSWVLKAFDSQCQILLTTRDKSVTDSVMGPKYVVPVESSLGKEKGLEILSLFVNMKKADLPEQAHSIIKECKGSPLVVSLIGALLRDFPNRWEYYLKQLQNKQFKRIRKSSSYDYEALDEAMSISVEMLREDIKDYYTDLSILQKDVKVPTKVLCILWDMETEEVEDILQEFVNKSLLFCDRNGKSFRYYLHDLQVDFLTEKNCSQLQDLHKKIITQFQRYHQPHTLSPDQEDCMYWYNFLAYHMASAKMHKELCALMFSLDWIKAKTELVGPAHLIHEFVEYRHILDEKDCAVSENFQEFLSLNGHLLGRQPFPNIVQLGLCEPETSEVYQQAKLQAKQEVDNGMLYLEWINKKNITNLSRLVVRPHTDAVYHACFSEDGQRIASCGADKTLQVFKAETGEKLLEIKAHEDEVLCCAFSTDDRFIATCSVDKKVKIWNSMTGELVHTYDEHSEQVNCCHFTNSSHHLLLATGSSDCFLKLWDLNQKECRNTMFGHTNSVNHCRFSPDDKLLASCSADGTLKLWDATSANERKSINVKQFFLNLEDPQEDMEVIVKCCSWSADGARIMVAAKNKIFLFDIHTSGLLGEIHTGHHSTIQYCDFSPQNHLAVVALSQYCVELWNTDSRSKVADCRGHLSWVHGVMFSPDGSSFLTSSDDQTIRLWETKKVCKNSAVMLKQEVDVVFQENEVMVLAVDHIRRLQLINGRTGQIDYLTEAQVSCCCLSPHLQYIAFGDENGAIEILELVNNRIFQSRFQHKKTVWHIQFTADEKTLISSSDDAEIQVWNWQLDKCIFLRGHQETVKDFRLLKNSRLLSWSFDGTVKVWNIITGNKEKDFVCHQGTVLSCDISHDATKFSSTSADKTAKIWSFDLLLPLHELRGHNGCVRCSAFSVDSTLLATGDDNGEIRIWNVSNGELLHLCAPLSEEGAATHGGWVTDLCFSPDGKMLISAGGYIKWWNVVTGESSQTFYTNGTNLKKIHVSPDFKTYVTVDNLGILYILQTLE
Type of experiment: functional.

Experiment [7] in a line: HEK293 cell cytotoxicity, dose response, cytotoxicity control, cherry-picks, set 5 (AID 1053117). Type of experiment: functional, cell-based.
Experiment [8] in a line: A549 cell cytotoxicity, dose response, cytotoxicity control, cherry-picks, 26 µM top dose (AID 1053119). It counts as functional, cell-based.
The nature of experiment [9]: P. falciparum Dd2 growth inhibitors, dose response, SYBR Green, cherry-picked samples (AID 1159567). Type of experiment: functional, cell-based.
Experiment [10] in a line: HepG2 cell cytotoxicity, dose response, cytotoxicity control, cherry-picked samples (AID 1159577). Type of experiment: functional, cell-based.
Experiment [11] is described as follows: HepG2 cell cytotoxicity, dose response, cytotoxicity control, cherry-picks, set 5 (AID 1053118). It counts as functional, cell-based.
Experiment [12] is described as follows: LGR2 antagonists, dose response, cell-based, HEK293, CRE-luciferase reporter, cherry pick, set 2 (AID 743343).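 Note: transfected cells were stimulated with diluted bursicon conditioned medium after compound addition.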 Type of experiment: functional.
A short description of experiment [13]: A549 cell cytotoxicity, dose response, cytotoxicity control, plate reader, cherry-pick, antagonist series (AID 743412). Type of experiment: functional, cell-based.
Experiment [14] has as its target T5, Heat shock factor protein 1 (Mus musculus, UniProt P38532).
T5 sequence (P38532 whole entry): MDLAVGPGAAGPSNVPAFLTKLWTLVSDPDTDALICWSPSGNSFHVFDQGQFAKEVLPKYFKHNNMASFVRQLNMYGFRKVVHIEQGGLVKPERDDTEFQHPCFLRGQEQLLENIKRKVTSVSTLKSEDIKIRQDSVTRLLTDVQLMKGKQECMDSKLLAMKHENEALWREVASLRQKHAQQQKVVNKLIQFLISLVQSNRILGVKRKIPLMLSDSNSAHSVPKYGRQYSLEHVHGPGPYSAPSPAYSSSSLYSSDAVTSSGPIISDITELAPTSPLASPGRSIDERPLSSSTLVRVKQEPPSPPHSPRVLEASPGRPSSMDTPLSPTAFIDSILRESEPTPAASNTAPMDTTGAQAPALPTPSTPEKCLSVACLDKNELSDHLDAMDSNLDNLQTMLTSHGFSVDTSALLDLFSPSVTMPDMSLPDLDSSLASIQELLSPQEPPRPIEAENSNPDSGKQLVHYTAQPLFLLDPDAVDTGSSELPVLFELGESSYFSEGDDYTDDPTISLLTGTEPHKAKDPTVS
The experiment can be described thus: HSF1 potentiators in luciferase reporter cells, confirmation, cell-based, NIH3T3, luminescence, dose retest (AID 435004).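 Note: stress induced by proteasome inhibitor MG132 added 30 min after compound; luciferase reporter driven by HSF1 response element in NIH3T3 cells; actives raise luminescence as potentiators of the MG132 stress response.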 It counts as functional.

Experiment [15] addresses T1, Oxysterols receptor LXR-beta. Type of experiment: functional, cell-based. The source holds these as a separate data set.
Experiment [16] is described as follows: cells.
Experiment [17] is described as follows: HEK293T cytotoxicity, dose response, cytotoxicity control for miR-122 modulator project, cell-based, inhibitor set, cherry-pick, set 2 (AID 720697). Type of experiment: functional.

SMILES strings stand for the structures. The source made the active and inactive calls.

Chain of Genome polyprotein (P29990 2492-3391 limits assumed): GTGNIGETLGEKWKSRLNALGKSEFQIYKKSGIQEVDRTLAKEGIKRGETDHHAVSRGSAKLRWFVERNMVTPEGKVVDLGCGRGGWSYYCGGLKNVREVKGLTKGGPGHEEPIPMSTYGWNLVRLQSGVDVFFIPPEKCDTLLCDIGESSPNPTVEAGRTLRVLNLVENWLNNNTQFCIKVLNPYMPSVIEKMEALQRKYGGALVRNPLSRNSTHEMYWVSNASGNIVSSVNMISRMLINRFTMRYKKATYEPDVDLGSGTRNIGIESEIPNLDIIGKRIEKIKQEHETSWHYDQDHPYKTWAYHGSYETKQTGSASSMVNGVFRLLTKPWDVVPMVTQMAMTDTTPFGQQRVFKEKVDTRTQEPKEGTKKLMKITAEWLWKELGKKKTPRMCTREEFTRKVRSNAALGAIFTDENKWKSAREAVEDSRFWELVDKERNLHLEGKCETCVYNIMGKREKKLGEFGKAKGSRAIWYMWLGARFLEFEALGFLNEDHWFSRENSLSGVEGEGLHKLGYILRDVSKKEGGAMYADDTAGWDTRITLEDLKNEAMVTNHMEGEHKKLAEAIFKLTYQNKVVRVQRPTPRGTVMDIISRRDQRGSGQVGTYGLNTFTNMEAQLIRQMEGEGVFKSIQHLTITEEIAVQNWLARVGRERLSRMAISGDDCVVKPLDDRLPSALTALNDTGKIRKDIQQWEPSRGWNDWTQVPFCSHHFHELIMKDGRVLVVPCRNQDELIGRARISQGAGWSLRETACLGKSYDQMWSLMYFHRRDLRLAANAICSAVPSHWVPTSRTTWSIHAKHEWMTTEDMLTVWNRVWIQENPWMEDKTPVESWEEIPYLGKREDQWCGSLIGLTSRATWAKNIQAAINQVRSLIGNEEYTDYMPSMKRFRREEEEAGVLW

For the molecule `Oc1ccccc1-c1cc(-c2ccc3c(c2)OCCO3)[nH]n1`, the EC50 in experiment [1] was > 67.6 µM (inactive). Also, the IC50 was 17.6 µM (inactive) in [2], > 50 µM (not active) in [3] and > 67.6 µM (inactive) in “cells [4]”.

On to `Cc1coc2c1C(=O)C(=O)c1c-2ccc2c1CCCC2(C)C` [TANSHINONE IIA], for which the AC50 in experiment [5] was 88.9 µM (active). Besides, the half-maximal cytotoxic concentration (CC50) in the experiment on Vero is 9.09 µM (active). Besides, the concentration for half-maximal inhibition (IC50) on Genome polyprotein is > 100 µM (active); in experiment [6], 4.82 µM (active).

With `CO[C@@H]1CN(C)C(=O)c2ccc(NC(=O)c3ccc(-c4ccccc4)cc3)cc2OC[C@H](C)NC[C@@H]1C`, the half-maximal activity concentration (AC50) is 18.1 µM (active) in experiment [7]; 16.2 µM (active) in [8]; 4.99 µM (active) in experiment [9]; 8.05 µM (active) in [10]; 12.2 µM (active) in experiment [11].

As for `NCC[C@H]1CC[C@H](NS(=O)(=O)Cc2ccccc2)[C@@H](CO)O1`, the values for the concentration at half-maximal activity (AC50) in experiment [12] and in experiment [13] were 40.7 µM (active) and > 52 µM (inactive), respectively.

On to `CC(C)c1ccc(-n2cnn(-c3ncccc3[N+](=O)[O-])c2=O)cc1`, for which the values for the EC50 (in [14]; in experiment [15]; in “cells [16]”) were > 260 µM (inactive), > 67.5 µM (inactive) and > 67.5 µM (inactive), respectively.

Regarding `CCn1nnnc1SCC(=O)Nc1nnc(C(C)C)s1`, the AC50 in experiment [17] is 7.36 µM (active).

The record behind these values is ChEMBL document CHEMBL1201862, “PubChem BioAssay data set” (2004).
